Measurements taken from patent publication US9663460B2, “Sulfur derivatives as chemokine receptor modulators” (ALLERGAN, INC., priority 2010, dated 2017).

Biological target: CCR2 (Homo sapiens (Human), UniProt P41597)
Test: Calcium activity assayed on the FLIPR Tetra in HEK-Gqi5 cells stably expressing CCR2
Type: cell-based
Conditions: FLIPR Tetra calcium assay

CCR2, sequence (P41597 whole entry, species assumed): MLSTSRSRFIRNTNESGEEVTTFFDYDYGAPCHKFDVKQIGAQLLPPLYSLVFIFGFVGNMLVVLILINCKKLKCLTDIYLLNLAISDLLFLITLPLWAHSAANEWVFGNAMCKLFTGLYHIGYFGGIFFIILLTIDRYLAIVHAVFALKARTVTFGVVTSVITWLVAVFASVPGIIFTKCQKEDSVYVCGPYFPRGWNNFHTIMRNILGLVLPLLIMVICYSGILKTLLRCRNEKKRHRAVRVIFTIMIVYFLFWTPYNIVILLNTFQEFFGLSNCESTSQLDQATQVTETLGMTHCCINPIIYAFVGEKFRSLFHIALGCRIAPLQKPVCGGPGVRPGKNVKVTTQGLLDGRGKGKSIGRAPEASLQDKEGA

| Compound | CCR2 % ANTAGONISM [%] | IC50 [nM] |
| --- | --- | --- |
| CN(C)C(=O)CCCS(=O)(=O)c1ccc(Cl)cc1NS(=O)(=O)c1cc2ccccc2o1 [4-({2-[(1-benzofuran-2-ylsulfonyl)amino]-4-chlorophenyl}sulfonyl)-N,N-dimethylbutanamide] | 98 | 1000 |
| CN(C)C(=O)CCSc1ccc(Cl)cc1NS(=O)(=O)c1ccc(F)cc1F [3-[(4-chloro-2-{[(2,4-difluorophenyl)sulfonyl]amino}phenyl)thio]-N,N-dimethylpropanamide] | 43 | 2150 |
| CC(C)c1ccc(S(=O)(=O)Nc2cc(Cl)ccc2[S+](C)[O-])cc1 (centres unmarked) [N-[5-chloro-2-(methylsulfinyl)phenyl]-4-isopropylbenzenesulfonamide] | 68 | 934 |
| CC(C)(C)OC(=O)Nc1nc(C[S+]([O-])c2ccc(Cl)cc2NS(=O)(=O)c2cc3ccccc3o2)cs1 (centres unmarked) [tert-butyl {4-[({2-[(1-benzofuran-2-ylsulfonyl)amino]-4-chlorophenyl}sulfinyl)methyl]-1,3-thiazol-2-yl}carbamate] | 101 | 2400 |
| CN(C)C(=O)CCSc1ccc(Cl)cc1NS(=O)(=O)c1ccc(Cl)cc1F [3-[(4-chloro-2-{[(4-chloro-2-fluorophenyl)sulfonyl]amino}phenyl)thio]-N,N-dimethylpropanamide] | 78 | 771 |
| CC(C)NC(=O)CC[S+]([O-])c1ccc(Cl)cc1NS(=O)(=O)c1ccc(Cl)c(C(F)(F)F)c1 (centres unmarked) [3-{[4-chloro-2-({[4-chloro-3-(trifluoromethyl)phenyl]sulfonyl}amino)phenyl]sulfinyl}-N-isopropylpropanamide] | 93 | 1790 |
| Nc1cccc(CSc2ccccc2NS(=O)(=O)c2cc3ccccc3o2)c1 [N-{2-[(3-aminobenzyl)thio]phenyl}-1-benzofuran-2-sulfonamide] | 105 | 676 |
| O=[N+]([O-])c1cccc(CSc2ccc(Cl)cc2NS(=O)(=O)c2cc3ccccc3o2)c1 [N-{5-chloro-2-[(3-nitrobenzyl)thio]phenyl}-1-benzofuran-2-sulfonamide] | 63 | – |
| O=S(=O)(Nc1cc(Cl)ccc1SCc1c[nH]cn1)c1ccc(Cl)c(C(F)(F)F)c1 [4-chloro-N-{5-chloro-2-[(1H-imidazol-4-ylmethyl)thio]phenyl}-3-(trifluoromethyl)benzenesulfonamide] | 83 | 68 |
